Measured values reported in patent publication US10766894B2, “Aza-indazole compounds for use in tendon and/or ligament injuries” (NOVARTIS AG, priority 2016, dated 2020).
Read-outs that look alike come from different tables or passages of the source.

System: mouse immortalized TT-D6 Scx-luciferase (ScxL) cell line; transcriptional activation of Scleraxis (Scx) gene
Assay: SCX-LUC in vitro assay (scleraxis promoter luciferase reporter)
Format: cell-based
[1] = Mus musculus, 96 h, Examples table, TT-D6 Scx-luciferase cells, 1 ng/ml TGFβ1, four days, read-out: Scx-Luc (EC50 μM)
[2] = Mus musculus, 96 h, Table 1, TT-D6 Scx-luciferase cells, 1 ng/ml TGFβ1, four days, read-out: Scx-Luc (EC50 uM)

SMILES | EC50 [1] [µM] | also measured
COc1ccc(S(=O)(=O)Nc2ccc(-c3ccc4[nH]nc(N)c4n3)c(Cl)c2)cc1NC(C)=O [Example 61, N-(5-(N-(4-(3-amino-1H-pyrazolo[4,3-b]pyridin-5-yl)-3-chlorophenyl)sulfamoyl)-2-methoxyphenyl)acetamide] | 1.54 | 
Cc1cc(S(=O)(=O)N[C@H]2CC[C@@](O)(C(F)(F)F)CC2)ccc1-c1ccc2[nH]nc(N)c2n1 [Example 68, 4-(3-amino-1H-pyrazolo[4,3-b]pyridin-5-yl)-N-((1r,4r)-4-hydroxy-4-(trifluoromethyl)cyclohexyl)-3-methylbenzenesulfonamide] | 0.354 | 
N#Cc1cccc(S(=O)(=O)Nc2ccc(-c3ccc4[nH]nc(N)c4n3)c(Cl)c2)c1 [Example 22, N-(4-(3-amino-1H-pyrazolo[4,3-b]pyridin-5-yl)-3-chlorophenyl)-3-cyanobenzenesulfonamide] | 0.035 | 
Nc1n[nH]c2ccc(-c3ccc(NS(=O)(=O)c4ccc(Cl)c(Cl)c4)cc3Cl)nc12 [Example 43, N-(4-(3-amino-1H-pyrazolo[4,3-b]pyridin-5-yl)-3-chlorophenyl)-3,4-dichlorobenzenesulfonamide] | 3.31 | 
COc1ccc(S(=O)(=O)Nc2ccc(-c3ccc4[nH]nc(N)c4n3)c(Cl)c2)cc1OC [Example 79, N-(4-(3-amino-1H-pyrazolo[4,3-b]pyridin-5-yl)-3-chlorophenyl)-3,4-dimethoxybenzenesulfonamide] | 0.061 | 
Cc1cc(S(=O)(=O)N[C@H]2C[C@H](O)C2)ccc1-c1ccc2[nH]nc(N)c2n1 [Example 77, 4-(3-amino-1H-pyrazolo[4,3-b]pyridin-5-yl)-N-((1r,3r)-3-hydroxycyclobutyl)-3-methylbenzenesulfonamide] | 0.777 | 
CC1(C)CN(C(=O)c2ccc(-c3cccc4nc(NC(=O)C5CC5)nn34)cc2)C1 [reference compound] |  | EC50 [2]: 1.42 µM
Nc1n[nH]c2ccc(-c3ccc(S(=O)(=O)N[C@H]4CCC[C@@H]4O)cc3Cl)nc12 [Example 94, 4-(3-amino-1H-pyrazolo[4,3-b]pyridin-5-yl)-3-chloro-N-((1S,2S)-2-hydroxycyclopentyl)benzenesulfonamide] | 0.026 | 
Nc1n[nH]c2ccc(-c3ccc(S(=O)(=O)N4CC(F)(F)C4)cc3Cl)nc12 [Example 74, 5-(2-chloro-4-((3,3-difluoroazetidin-1-yl)sulfonyl)phenyl)-1H-pyrazolo[4,3-b]pyridin-3-amine] | 2.03 | 
Cc1cc(S(=O)(=O)N2CC(F)(F)C[C@H]2CO)ccc1-c1ccc2[nH]nc(N)c2n1 [Example 37, (S)-(1-((4-(3-amino-1H-pyrazolo[4,3-b]pyridin-5-yl)-3-methylphenyl)sulfonyl)-4,4-difluoropyrrolidin-2-yl)methanol] | 0.593 | 
Nc1n[nH]c2ccc(-c3ccc(S(=O)(=O)N[C@H]4CC[C@@H](O)CC4)cc3Cl)nc12 [Example 48, 4-(3-amino-1H-pyrazolo[4,3-b]pyridin-5-yl)-3-chloro-N-((1s,4s)-4-hydroxycyclohexyl)benzenesulfonamide] | 2.02 | 
Cc1ccc(O)c(S(=O)(=O)Nc2ccc(-c3ccc4[nH]nc(N)c4n3)c(Cl)c2)c1 [Example 32, N-(4-(3-amino-1H-pyrazolo[4,3-b]pyridin-5-yl)-3-chlorophenyl)-2-hydroxy-5-methylbenzenesulfonamide] | 1.94 | 
Nc1n[nH]c2ccc(-c3ccc(S(=O)(=O)N4CC5CCCC5C4)cc3Cl)nc12 (stereo not drawn) [Example 51, 5-(2-chloro-4-((hexahydrocyclopenta[c]pyrrol-2(1H)-yl)sulfonyl)phenyl)-1H-pyrazolo[4,3-b]pyridin-3-amine] | 2.39 | 
Nc1n[nH]c2ccc(-c3ccc(S(=O)(=O)N[C@@H]4CC[C@H](O)C4)cc3Cl)nc12 [Example 23, 4-(3-amino-1H-pyrazolo[4,3-b]pyridin-5-yl)-3-chloro-N-((1R,3S)-3-hydroxycyclopentyl)benzenesulfonamide] | 2.28 | 
Cc1cc(NS(=O)(=O)c2cccc(F)c2)ccc1-c1ccc2[nH]nc(N)c2n1 [Example 33, N-(4-(3-amino-1H-pyrazolo[4,3-b]pyridin-5-yl)-3-methylphenyl)-3-fluorobenzenesulfonamide] | 1.02 | 
COc1ccc(S(=O)(=O)Nc2ccc(-c3ccc4[nH]nc(N)c4n3)c(Cl)c2)cc1 [Example 5, N-(4-(3-amino-1H-pyrazolo[4,3-b]pyridin-5-yl)-3-chlorophenyl)-4-methoxybenzenesulfonamide] | 0.909 | 
Nc1n[nH]c2ccc(-c3ccc(NS(=O)(=O)c4ccc(F)c(Cl)c4)cc3Cl)nc12 [Example 27, N-(4-(3-amino-1H-pyrazolo[4,3-b]pyridin-5-yl)-3-chlorophenyl)-3-chloro-4-fluorobenzenesulfonamide] | 1.08 | 
Nc1n[nH]c2ccc(-c3ccc(S(=O)(=O)Nc4ccccc4)cc3F)nc12 [Example 49, 4-(3-amino-1H-pyrazolo[4,3-b]pyridin-5-yl)-3-fluoro-N-phenylbenzenesulfonamide] | 0.87 | 

SMILES | EC50 [1] [µM] | also measured
Nc1n[nH]c2ccc(-c3ccc(NS(=O)(=O)[C@H]4CCCC[C@H]4O)cc3Cl)nc12 [Example 14, (1S,2R)—N-(4-(3-amino-1H-pyrazolo[4,3-b]pyridin-5-yl)-3-chlorophenyl)-2-hydroxycyclohexane-1-sulfonamide] | 1.12 | 
Cc1cc(S(=O)(=O)N[C@@H]2CC[C@H](O)C2)ccc1-c1ccc2[nH]nc(N)c2n1 [Example 19, 4-(3-amino-1H-pyrazolo[4,3-b]pyridin-5-yl)-N-((1R,3S)-3-hydroxycyclopentyl)-3-methylbenzenesulfonamide] | 1.7 | 
Cc1cc(S(=O)(=O)NC2CCCCC2O)ccc1-c1ccc2[nH]nc(N)c2n1 (stereo not drawn) [Example 91, 4-(3-amino-1H-pyrazolo[4,3-b]pyridin-5-yl)-N-(2-hydroxycyclohexyl)-3-methylbenzenesulfonamide] | 1.81 | 
Nc1n[nH]c2ccc(-c3ccc(NS(=O)(=O)c4ccc(C(F)(F)F)cc4)cc3Cl)nc12 [Example 78, N-(4-(3-amino-1H-pyrazolo[4,3-b]pyridin-5-yl)-3-chlorophenyl)-4-(trifluoromethyl)benzenesulfonamide] | 2.44 | 
Nc1n[nH]c2ccc(-c3ccc(NS(=O)(=O)c4cccc(Cl)c4)cc3Cl)nc12 [Example 28, N-(4-(3-amino-1H-pyrazolo[4,3-b]pyridin-5-yl)-3-chlorophenyl)-3-chlorobenzenesulfonamide] | 2.5 | 
Cc1cc(S(=O)(=O)N2CCC[C@H]2CO)ccc1-c1ccc2[nH]nc(N)c2n1 [Example 70, (S)-(1-((4-(3-amino-1H-pyrazolo[4,3-b]pyridin-5-yl)-3-methylphenyl)sulfonyl)pyrrolidin-2-yl)methanol] | 0.762 | 
COc1cccc(S(=O)(=O)Nc2ccc(-c3ccc4[nH]nc(N)c4n3)c(Cl)c2)c1 [Example 67, N-(4-(3-amino-1H-pyrazolo[4,3-b]pyridin-5-yl)-3-chlorophenyl)-3-methoxybenzenesulfonamide] | 2.32 | 
Nc1n[nH]c2ccc(-c3ccc(NS(=O)(=O)c4cccc(F)c4)cc3Cl)nc12 [Example 41, N-(4-(3-amino-1H-pyrazolo[4,3-b]pyridin-5-yl)-3-chlorophenyl)-3-fluorobenzenesulfonamide] | 2.25 | 
Nc1n[nH]c2ccc(-c3ccc(NS(=O)(=O)[C@@H]4CCCC[C@@H]4O)cc3Cl)nc12 [Example 60, (1R,2S)—N-(4-(3-amino-1H-pyrazolo[4,3-b]pyridin-5-yl)-3-chlorophenyl)-2-hydroxycyclohexane-1-sulfonamide] | 3.04 | 
C[C@]1(O)CC[C@H](NS(=O)(=O)c2ccc(-c3ccc4[nH]nc(N)c4n3)c(Cl)c2)CC1 [Example 58, 4-(3-amino-1H-pyrazolo[4,3-b]pyridin-5-yl)-3-chloro-N-((1r,4r)-4-hydroxy-4-methylcyclohexyl)benzenesulfonamide] | 1.51 | 
Cc1cc(S(=O)(=O)N2CC(F)(F)CC2C(N)=O)ccc1-c1ccc2[nH]nc(N)c2n1 (stereo not drawn) [Example 34, 1-((4-(3-amino-1H-pyrazolo[4,3-b]pyridin-5-yl)-3-methylphenyl)sulfonyl)-4,4-difluoropyrrolidine-2-carboxamide] | 5.02 | 
C[C@@H](O)c1nc2cnc3[nH]ccc3c2n1[C@@H]1CCCOC1 [reference compound] |  | EC50 [2]: 1.34 µM
Nc1n[nH]c2ccc(-c3ccc(S(=O)(=O)N[C@H]4CCC[C@H]4O)cc3Cl)nc12 [Example 35, 4-(3-amino-1H-pyrazolo[4,3-b]pyridin-5-yl)-3-chloro-N-((1S,2R)-2-hydroxycyclopentyl)benzenesulfonamide] | 2.73 | 
Nc1n[nH]c2ccc(-c3ccc(S(=O)(=O)Nc4cccc(Cl)c4Cl)cc3Cl)nc12 [Example 56, 4-(3-amino-1H-pyrazolo[4,3-b]pyridin-5-yl)-3-chloro-N-(2,3-dichlorophenyl)benzenesulfonamide] | 1.64 | 
NC(=O)[C@H]1C[C@@H](F)CN1S(=O)(=O)c1ccc(-c2ccc3[nH]nc(N)c3n2)c(Cl)c1 [Example 55, (2R,4R)-1-((4-(3-amino-1H-pyrazolo[4,3-b]pyridin-5-yl)-3-chlorophenyl)sulfonyl)-4-fluoropyrrolidine-2-carboxamide] | 6.16 | 
Nc1n[nH]c2ccc(-c3ccc(S(=O)(=O)N[C@H]4CC[C@H](O)CC4)cc3Cl)nc12 [Example 45, 4-(3-amino-1H-pyrazolo[4,3-b]pyridin-5-yl)-3-chloro-N-((1r,4r)-4-hydroxycyclohexyl)benzenesulfonamide] | 4.73 | 
Nc1n[nH]c2ccc(-c3ccc(S(=O)(=O)NC4CCC(O)(C(F)(F)F)CC4)cc3Cl)nc12 [4-(3-amino-1H-pyrazolo[4,3-b]pyridin-5-yl)-3-chloro-N-((1R,4R)-4-hydroxy-4-(trifluoromethyl)cyclohexyl)benzenesulfonamide] |  | EC50 (further compounds not numbered as examples, read-out: EC50 in the Scx-Luc assay): > 10 µM
Nc1n[nH]c2ccc(-c3ccc(S(=O)(=O)N[C@@H]4CCC[C@H]4O)cc3Cl)nc12 [Example 29, 4-(3-amino-1H-pyrazolo[4,3-b]pyridin-5-yl)-3-chloro-N-((1R,2R)-2-hydroxycyclopentyl)benzenesulfonamide] | 1.91 | 
